PMC10127554 (Chemical biology & drug design, 2022)

molecular target: T1, NUAK2 (Homo sapiens, UniProt Q9H093); experiment: Kinase activity profiling; type: biochemical; settings: concentration not given
T1 sequence (Q9H093 1-628): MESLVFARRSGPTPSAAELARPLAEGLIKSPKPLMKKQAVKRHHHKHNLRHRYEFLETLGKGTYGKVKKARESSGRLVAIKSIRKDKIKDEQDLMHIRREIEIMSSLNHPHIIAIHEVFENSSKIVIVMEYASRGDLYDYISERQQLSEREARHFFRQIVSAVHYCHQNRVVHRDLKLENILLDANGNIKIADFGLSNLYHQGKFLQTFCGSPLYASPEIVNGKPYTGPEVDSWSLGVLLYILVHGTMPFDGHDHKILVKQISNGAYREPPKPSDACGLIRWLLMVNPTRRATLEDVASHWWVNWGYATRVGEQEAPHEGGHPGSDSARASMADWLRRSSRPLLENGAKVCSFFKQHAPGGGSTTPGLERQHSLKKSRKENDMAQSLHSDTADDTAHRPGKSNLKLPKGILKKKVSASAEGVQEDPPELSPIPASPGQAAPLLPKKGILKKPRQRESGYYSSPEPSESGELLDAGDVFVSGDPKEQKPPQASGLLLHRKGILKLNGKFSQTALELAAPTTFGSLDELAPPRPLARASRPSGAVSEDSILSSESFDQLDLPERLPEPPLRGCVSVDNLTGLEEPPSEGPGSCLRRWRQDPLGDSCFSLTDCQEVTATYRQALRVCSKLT

| SMILES | inhibitory activity against NUAK2 [%] |
| --- | --- |
| O=C1CC(c2ccc(Br)cc2)=NN1c1ccccc1 [P7, 5-(4-bromophenyl)-2-phenyl-2,4-dihydro-3H-pyrazol-3-one] | 41 |

test system: A549 cells; experiment: Antiproliferative activity, CellTiter Glo assay, A549; settings: Homo sapiens, A549, 72 h, read-out: IC50 A549

| SMILES | IC50 [µM] |
| --- | --- |
| CC1=NN(c2ccccc2)C(=O)C1(C)O (stereo not drawn) [P1, 4-hydroxy-4,5-dimethyl-2-phenyl-2,4-dihydro-3H-pyrazol-3-one] | > 100 |
| CCCC1=NN(c2ccccc2)C(=O)C1 [P2, 2-phenyl-5-propyl-2,4-dihydro-3H-pyrazol-3-one] | > 100 |
| O=C1CC(c2ccccc2)=NN1c1ccccc1 [P3, 2,5-diphenyl-2,4-dihydro-3H-pyrazol-3-one] | 10.3 ± 1.55 |
| O=C1CC(c2ccccc2)=NN1c1ccc(Br)cc1 [P4, 2-(4-bromophenyl)-5-phenyl-2,4-dihydro-3H-pyrazol-3-one] | 2.61 ± 1.12 |
| O=C1CC(c2ccccc2)=NN1c1ccc(Cl)cc1 [P5, 2-(4-chlorophenyl)-5-phenyl-2,4-dihydro-3H-pyrazol-3-one] | 1.98 ± 1.1 |
| O=C1CC(c2ccc([N+](=O)[O-])cc2)=NN1c1ccccc1 [P6, 5-(4-nitrophenyl)-2-phenyl-2,4-dihydro-3H-pyrazol-3-one] | 39.6 ± 1.05 |
| O=C1CC(c2ccc(Br)cc2)=NN1c1ccccc1 [P7, 5-(4-bromophenyl)-2-phenyl-2,4-dihydro-3H-pyrazol-3-one] | 6.35 ± 0.85 |
| O=C1CC(c2ccc(F)cc2)=NN1c1ccccc1 [P8, 5-(4-fluorophenyl)-2-phenyl-2,4-dihydro-3H-pyrazol-3-one] | 9.51 ± 3.12 |
| COc1ccc(C2=NN(c3ccccc3)C(=O)C2)cc1 [P9, 5-(4-methoxyphenyl)-2-phenyl-2,4-dihydro-3H-pyrazol-3-one] | 42.2 ± 2.76 |
| COc1cccc(C2=NN(c3ccccc3)C(=O)C2)c1 [P10, 5-(3-methoxyphenyl)-2-phenyl-2,4-dihydro-3H-pyrazol-3-one] | > 100 |
| O=C1CC(c2ccc(C(F)(F)F)cc2)=NN1c1ccccc1 [P11, 2-phenyl-5-(4-(trifluoromethyl)phenyl)-2,4-dihydro-3H-pyrazol-3-one] | 5.98 ± 0.84 |
| O=C1CC(c2cc(F)c(F)c(F)c2F)=NN1c1ccccc1 [P12, 2-phenyl-5-(2,3,4,5-tetrafluorophenyl)-2,4-dihydro-3H-pyrazol-3-one] | 8.6 ± 0.59 |
| O=C1CC(c2ccc(F)cc2)=NN1c1ccc(Br)cc1 [P13, 2-(4-bromophenyl)-5-(4-fluorophenyl)-2,4-dihydro-3H-pyrazol-3-one] | 2.67 ± 0.51 |
| O=C1CC(c2ccc(Br)cc2)=NN1c1ccc(Br)cc1 [P14, 2,5-bis(4-bromophenyl)-2,4-dihydro-3H-pyrazol-3-one] | 2.73 ± 0.28 |
| O=C1CC(c2ccc(Br)cc2)=NN1c1ccc(C(F)(F)F)cc1 [P16, 5-(4-bromophenyl)-2-(4-(trifluoromethyl)phenyl)-2,4-dihydro-3H-pyrazol-3-one] | 3.37 ± 0.1 |
| O=C1CC(c2ccc(Br)cc2)=NN1c1cc(Cl)cc(Cl)c1 [P17, 5-(4-bromophenyl)-2-(3,5-dichlorophenyl)-2,4-dihydro-3H-pyrazol-3-one] | 5.56 ± 0.07 |
| CN(C)C/C=C/C(=O)Nc1cc2c(Nc3ccc(F)c(Cl)c3)ncnc2cc1O[C@H]1CCOC1 [PC-1, Afatinib, reference compound] | 8.46 ± 2.03 |

molecular target: ACVRL1 (Homo sapiens, UniProt P37023); experiment: Kinase activity profiling; type: biochemical; settings: concentration not given
Sequence (P37023 22-503): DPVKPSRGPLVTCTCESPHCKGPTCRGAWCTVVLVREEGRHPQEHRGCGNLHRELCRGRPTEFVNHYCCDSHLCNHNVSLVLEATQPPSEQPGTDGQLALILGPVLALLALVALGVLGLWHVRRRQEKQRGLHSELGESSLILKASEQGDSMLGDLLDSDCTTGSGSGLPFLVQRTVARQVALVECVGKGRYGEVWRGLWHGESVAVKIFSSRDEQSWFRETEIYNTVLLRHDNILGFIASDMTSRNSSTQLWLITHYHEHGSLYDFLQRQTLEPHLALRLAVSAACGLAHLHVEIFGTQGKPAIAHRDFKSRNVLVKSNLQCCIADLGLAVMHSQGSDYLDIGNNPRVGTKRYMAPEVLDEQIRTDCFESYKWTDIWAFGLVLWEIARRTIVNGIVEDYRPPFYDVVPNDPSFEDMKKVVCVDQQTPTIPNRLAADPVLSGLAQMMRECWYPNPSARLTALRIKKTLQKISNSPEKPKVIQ

| SMILES | inhibitory activity against ACVRL1 [%] |
| --- | --- |
| O=C1CC(c2ccc(Br)cc2)=NN1c1ccccc1 [P7, 5-(4-bromophenyl)-2-phenyl-2,4-dihydro-3H-pyrazol-3-one] | 47 |

test system: NCI-H522 cells; experiment: Antiproliferative activity, CellTiter Glo assay, NCI-H522; settings: Homo sapiens, NCI-H522, 72 h, read-out: IC50 NCIH522

| SMILES | IC50 [µM] |
| --- | --- |
| CC1=NN(c2ccccc2)C(=O)C1(C)O (stereo not drawn) [P1, 4-hydroxy-4,5-dimethyl-2-phenyl-2,4-dihydro-3H-pyrazol-3-one] | > 100 |
| CCCC1=NN(c2ccccc2)C(=O)C1 [P2, 2-phenyl-5-propyl-2,4-dihydro-3H-pyrazol-3-one] | > 100 |
| O=C1CC(c2ccccc2)=NN1c1ccccc1 [P3, 2,5-diphenyl-2,4-dihydro-3H-pyrazol-3-one] | 17 ± 2.61 |
| O=C1CC(c2ccccc2)=NN1c1ccc(Br)cc1 [P4, 2-(4-bromophenyl)-5-phenyl-2,4-dihydro-3H-pyrazol-3-one] | 4.93 ± 1.13 |
| O=C1CC(c2ccccc2)=NN1c1ccc(Cl)cc1 [P5, 2-(4-chlorophenyl)-5-phenyl-2,4-dihydro-3H-pyrazol-3-one] | 4.5 ± 1.16 |
| O=C1CC(c2ccc([N+](=O)[O-])cc2)=NN1c1ccccc1 [P6, 5-(4-nitrophenyl)-2-phenyl-2,4-dihydro-3H-pyrazol-3-one] | 40.5 ± 2.3 |
| O=C1CC(c2ccc(Br)cc2)=NN1c1ccccc1 [P7, 5-(4-bromophenyl)-2-phenyl-2,4-dihydro-3H-pyrazol-3-one] | 4.7 ± 1.38 |
| O=C1CC(c2ccc(F)cc2)=NN1c1ccccc1 [P8, 5-(4-fluorophenyl)-2-phenyl-2,4-dihydro-3H-pyrazol-3-one] | 17.9 ± 3.36 |
| COc1ccc(C2=NN(c3ccccc3)C(=O)C2)cc1 [P9, 5-(4-methoxyphenyl)-2-phenyl-2,4-dihydro-3H-pyrazol-3-one] | 51.2 ± 3.06 |
| COc1cccc(C2=NN(c3ccccc3)C(=O)C2)c1 [P10, 5-(3-methoxyphenyl)-2-phenyl-2,4-dihydro-3H-pyrazol-3-one] | > 100 |
| O=C1CC(c2ccc(C(F)(F)F)cc2)=NN1c1ccccc1 [P11, 2-phenyl-5-(4-(trifluoromethyl)phenyl)-2,4-dihydro-3H-pyrazol-3-one] | 4.88 ± 1.73 |
| O=C1CC(c2cc(F)c(F)c(F)c2F)=NN1c1ccccc1 [P12, 2-phenyl-5-(2,3,4,5-tetrafluorophenyl)-2,4-dihydro-3H-pyrazol-3-one] | 9.9 ± 2.44 |
| O=C1CC(c2ccc(F)cc2)=NN1c1ccc(Br)cc1 [P13, 2-(4-bromophenyl)-5-(4-fluorophenyl)-2,4-dihydro-3H-pyrazol-3-one] | 3.7 ± 0.34 |
| O=C1CC(c2ccc(Br)cc2)=NN1c1ccc(Br)cc1 [P14, 2,5-bis(4-bromophenyl)-2,4-dihydro-3H-pyrazol-3-one] | 2.41 ± 0.57 |
| O=C1CC(c2ccc(Br)cc2)=NN1c1ccc(C(F)(F)F)cc1 [P16, 5-(4-bromophenyl)-2-(4-(trifluoromethyl)phenyl)-2,4-dihydro-3H-pyrazol-3-one] | 2.95 ± 0.18 |
| O=C1CC(c2ccc(Br)cc2)=NN1c1cc(Cl)cc(Cl)c1 [P17, 5-(4-bromophenyl)-2-(3,5-dichlorophenyl)-2,4-dihydro-3H-pyrazol-3-one] | 5.07 ± 1.18 |
| CN(C)C/C=C/C(=O)Nc1cc2c(Nc3ccc(F)c(Cl)c3)ncnc2cc1O[C@H]1CCOC1 [PC-1, Afatinib, reference compound] | 5.34 ± 0.94 |

molecular target: T2, ANKK1 (Homo sapiens, UniProt Q8NFD2); experiment: Kinase activity profiling; type: biochemical; settings: concentration not given
T2 sequence (Q8NFD2 1-765): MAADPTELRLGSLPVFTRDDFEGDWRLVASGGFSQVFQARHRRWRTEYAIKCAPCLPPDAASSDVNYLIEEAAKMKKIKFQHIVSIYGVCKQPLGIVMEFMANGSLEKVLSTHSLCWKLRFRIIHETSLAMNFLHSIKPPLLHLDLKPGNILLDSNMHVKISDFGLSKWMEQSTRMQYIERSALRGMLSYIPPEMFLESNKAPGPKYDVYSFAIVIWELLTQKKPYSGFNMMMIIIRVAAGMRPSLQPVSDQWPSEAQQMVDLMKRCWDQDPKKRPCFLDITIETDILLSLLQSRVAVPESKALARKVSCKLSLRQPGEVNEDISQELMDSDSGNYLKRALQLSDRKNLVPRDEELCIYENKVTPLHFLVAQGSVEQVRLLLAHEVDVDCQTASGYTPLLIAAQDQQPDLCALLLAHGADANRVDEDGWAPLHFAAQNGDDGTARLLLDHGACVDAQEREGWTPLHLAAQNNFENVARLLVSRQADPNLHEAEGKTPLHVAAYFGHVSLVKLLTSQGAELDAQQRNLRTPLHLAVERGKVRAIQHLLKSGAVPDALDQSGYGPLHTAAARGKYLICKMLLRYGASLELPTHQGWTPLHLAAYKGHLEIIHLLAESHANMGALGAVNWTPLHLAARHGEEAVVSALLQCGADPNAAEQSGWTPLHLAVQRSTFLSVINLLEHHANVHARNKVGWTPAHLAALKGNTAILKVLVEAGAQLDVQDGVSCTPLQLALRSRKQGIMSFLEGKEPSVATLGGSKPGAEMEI

| SMILES | inhibitory activity against ANKK1 [%] |
| --- | --- |
| O=C1CC(c2ccc(Br)cc2)=NN1c1ccccc1 [P7, 5-(4-bromophenyl)-2-phenyl-2,4-dihydro-3H-pyrazol-3-one] | 50 |

test system: panel of 485 kinases (including 110 oncogenic kinases); experiment: Kinase activity profiling; type: biochemical; settings: not given

| SMILES | inhibitory activity over panel of 485 kinases |
| --- | --- |
| O=C1CC(c2ccc(Br)cc2)=NN1c1ccccc1 [P7, 5-(4-bromophenyl)-2-phenyl-2,4-dihydro-3H-pyrazol-3-one] | no potential inhibitory activity against any tested kinase |

test system: non-cancerous human lung fibroblast cells (HLF); experiment: Cytotoxicity, CellTiter Glo assay, non-cancerous human lung fibroblast cells; type: cell-based; settings: Homo sapiens, Fibroblast, 72 h, read-out: IC50 Non-cancerous HLF

| SMILES | IC50 [µM] |
| --- | --- |
| CC1=NN(c2ccccc2)C(=O)C1(C)O (stereo not drawn) [P1, 4-hydroxy-4,5-dimethyl-2-phenyl-2,4-dihydro-3H-pyrazol-3-one] | > 100 |
| O=C1CC(c2ccccc2)=NN1c1ccccc1 [P3, 2,5-diphenyl-2,4-dihydro-3H-pyrazol-3-one] | 25.1 ± 1.39 |
| O=C1CC(c2ccccc2)=NN1c1ccc(Br)cc1 [P4, 2-(4-bromophenyl)-5-phenyl-2,4-dihydro-3H-pyrazol-3-one] | 0.72 ± 1.07 |
| O=C1CC(c2ccccc2)=NN1c1ccc(Cl)cc1 [P5, 2-(4-chlorophenyl)-5-phenyl-2,4-dihydro-3H-pyrazol-3-one] | 0.99 ± 1.25 |
| O=C1CC(c2ccc([N+](=O)[O-])cc2)=NN1c1ccccc1 [P6, 5-(4-nitrophenyl)-2-phenyl-2,4-dihydro-3H-pyrazol-3-one] | 26.8 ± 1.4 |
| O=C1CC(c2ccc(Br)cc2)=NN1c1ccccc1 [P7, 5-(4-bromophenyl)-2-phenyl-2,4-dihydro-3H-pyrazol-3-one] | 61.3 ± 1.08 |
| O=C1CC(c2ccc(F)cc2)=NN1c1ccccc1 [P8, 5-(4-fluorophenyl)-2-phenyl-2,4-dihydro-3H-pyrazol-3-one] | 17.7 ± 1.1 |
| O=C1CC(c2ccc(C(F)(F)F)cc2)=NN1c1ccccc1 [P11, 2-phenyl-5-(4-(trifluoromethyl)phenyl)-2,4-dihydro-3H-pyrazol-3-one] | 26.1 ± 1.12 |
| O=C1CC(c2cc(F)c(F)c(F)c2F)=NN1c1ccccc1 [P12, 2-phenyl-5-(2,3,4,5-tetrafluorophenyl)-2,4-dihydro-3H-pyrazol-3-one] | 8.52 ± 1.09 |
| O=C1CC(c2ccc(F)cc2)=NN1c1ccc(Br)cc1 [P13, 2-(4-bromophenyl)-5-(4-fluorophenyl)-2,4-dihydro-3H-pyrazol-3-one] | 3.57 ± 1.15 |
| O=C1CC(c2ccc(Br)cc2)=NN1c1ccc(Br)cc1 [P14, 2,5-bis(4-bromophenyl)-2,4-dihydro-3H-pyrazol-3-one] | 2.55 ± 1.1 |
| O=C1CC(c2ccc(Br)cc2)=NN1c1ccc(C(F)(F)F)cc1 [P16, 5-(4-bromophenyl)-2-(4-(trifluoromethyl)phenyl)-2,4-dihydro-3H-pyrazol-3-one] | 1.45 ± 1.14 |
| O=C1CC(c2ccc(Br)cc2)=NN1c1cc(Cl)cc(Cl)c1 [P17, 5-(4-bromophenyl)-2-(3,5-dichlorophenyl)-2,4-dihydro-3H-pyrazol-3-one] | 6.94 ± 1.12 |
| CN(C)C/C=C/C(=O)Nc1cc2c(Nc3ccc(F)c(Cl)c3)ncnc2cc1O[C@H]1CCOC1 [PC-1, Afatinib, reference compound] | 12.2 ± 3.12 |

same assay, conditions: non-cancerous cells versus A549 and NCIH522 cancer cell lines

| SMILES | times less cytotoxic to non-cancerous cells [times] |
| --- | --- |
| O=C1CC(c2ccc(Br)cc2)=NN1c1ccccc1 [P7, 5-(4-bromophenyl)-2-phenyl-2,4-dihydro-3H-pyrazol-3-one] | 10 |

test system: NCI-H522 cells; experiment: Cell cycle analysis by flow cytometry; type: cell-based, human; settings: 48hrs at 5 μM

| SMILES | effect on cell cycle progression |
| --- | --- |
| O=C1CC(c2ccc(Br)cc2)=NN1c1ccccc1 [P7, 5-(4-bromophenyl)-2-phenyl-2,4-dihydro-3H-pyrazol-3-one] | more cell population in G0/G1 phase |
| O=C1CC(c2ccc(C(F)(F)F)cc2)=NN1c1ccccc1 [P11, 2-phenyl-5-(4-(trifluoromethyl)phenyl)-2,4-dihydro-3H-pyrazol-3-one] | more cell population in G0/G1 phase |
| O=C1CC(c2ccc(F)cc2)=NN1c1ccc(Br)cc1 [P13, 2-(4-bromophenyl)-5-(4-fluorophenyl)-2,4-dihydro-3H-pyrazol-3-one] | more cell population in G2/M phase |
| O=C1CC(c2ccc(Br)cc2)=NN1c1ccc(Br)cc1 [P14, 2,5-bis(4-bromophenyl)-2,4-dihydro-3H-pyrazol-3-one] | more cell population in G2/M phase |
